Laboratory results taken from publication PMC9635925, “Biological screening of a unique drug library targeting MRGPRX2” (Frontiers in Immunology, 2022).
Residue numbers refer to the chain shown, from its start. Where a name gives a salt, the structure may show the parent alone.

What was measured:
[1] = target: T1, MRGPRX2-MUT (MRGPRX2 N62S mutation) (Homo sapiens, UniProt Q96LB1, N62S); assay: Primary HTS, Ca2+ mobilization (fluorescence ratio, B-score) in HEK293-Gα15 cells stably expressing the MRGPRX2 N62S mutation; format: cell-based; details: for B-scores (MUT): 10 μM compound, MRGPRX2-MUT (N62S) cells; for Change of B-scores (%): 10 μM
T1 construct: expressed in transfected cells
T1 sequence (Q96LB1 1-330 N62S): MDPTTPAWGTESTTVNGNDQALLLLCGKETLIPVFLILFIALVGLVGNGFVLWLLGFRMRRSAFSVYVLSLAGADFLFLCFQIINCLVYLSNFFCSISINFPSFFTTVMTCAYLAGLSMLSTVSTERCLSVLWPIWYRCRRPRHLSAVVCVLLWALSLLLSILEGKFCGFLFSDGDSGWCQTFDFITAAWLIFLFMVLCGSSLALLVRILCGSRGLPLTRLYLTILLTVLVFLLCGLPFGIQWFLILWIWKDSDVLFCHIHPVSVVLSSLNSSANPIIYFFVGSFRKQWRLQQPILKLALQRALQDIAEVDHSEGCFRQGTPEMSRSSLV
Description: (§1) We performed an experimental HTS on the Johns Hopkins Drug Library, which includes 1,811 (57%) FDA-approved drugs among 3,456 total compounds (28% of all known drugs worldwide) ([15]). We performed the HTS at the Johns Hopkins University ChemBioCORE Facility and employed HEK293-Gα15 cell lines that stably expressed MRGPRX2 protein.
(§2) We utilized 10 μM compounds (each compound was tested in triplicate) and calculated the compound effect using the signal-to-background fluorescence ratio (see Supplementary Methods).
(§3) In the HTS, we determined MRGPRX2 activation by a Ca^2+ mobilization assay that recorded a fluorescence change by utilizing a Functional Drug Screening System (FDSS 6000; Hamamatsu); we evaluated the compound effect using the calculated fluorescence ratio. We further applied the B-score normalization, which provided robust corrections for variation in fluorescence ratio ([22]).
(§4) We performed an experimental high-throughput screening (HTS) on the Johns Hopkins Drug Library (JHDL), which includes 1,811 (57%) FDA-approved drugs among 3,456 total compounds (28% of all known drugs worldwide). The remaining compounds in JHDL are catalogued in one or more of the resources below: British Approved Names (BAN); Dénominations Communes Françaises (DCF); International Nonproprietary Names (INN); Japanese Adopted Names (JAN); MI (Merck Index); National Formulary drug name (NF); and United States Accepted Names (USAN). The JHU drug library is stocked in 96 well plates at 10 mM in 100% DMSO and stored at -80 °C. We used a final concentration of 10 uM for each compound and DMSO concentration of 0.1% (tested in triplicate). […] We evaluated compound effect using the calculated fluorescence ratio. We further calculated B-scores, which are a relative potency score similar to Z scores in that they are the ratio of an adjusted raw value in the numerator to a measure of variability in the denominator.

[2] = target: T2, MRGPRX2-WT (wild-type MRGPRX2 receptor) (Homo sapiens, UniProt Q96LB1); assay: Primary HTS, Ca2+ mobilization (fluorescence ratio, B-score) in HEK293-Gα15 cells stably expressing wild-type MRGPRX2; format: cell-based; details: 10 μM compound
T2 construct: expressed in transfected cells
T2 sequence (Q96LB1 1-330): T1 sequence (Q96LB1 1-330 N62S) with S62N
Description: as §1, §2, §3, §4

[3] = MRGPRX2-MUT in comparison to MRGPRX2-WT cells, Supplementary Table 1
[4] = MRGPRX2-MUT in comparison to MRGPRX2-WT cells, Table 1
[5] = MRGPRX2-MUT versus MRGPRX2-WT cells, Supplementary Table 2
[6] = Supplementary Table 2, listed as Isoprenaline

| Compound | B-scores (MUT) ([1]; Supplementary Table 1) | B-scores (MUT) ([1]; Table 1) | Change of B-scores (%) [1, 3] | Change of B-scores (%) [1, 4] | B-scores (WT) ([2]; Supplementary Table 1) | B-scores (WT) ([2]; Table 1) | B-scores (MUT) ([1]; Supplementary Table 2) | Change of B-scores (%) [1, 5] | B-scores (WT) ([2]; Supplementary Table 2) | other results |
| --- | --- | --- | --- | --- | --- | --- | --- | --- | --- | --- |
| CNCCC(Oc1ccc(C(F)(F)F)cc1)c1ccccc1 (stereo not shown) [Fluoxetine] | 7.14 | 7.14 | -80.32% | -80.32% | 36.30 | 36.30 | – | – | – | – |
| COc1ccc2c3c1O[C@H]1C[C@@H](O)C=C[C@@]31CCN(C)C2 [Galantamine Hydrobromide] | 1.33 | – | -93.34% | – | 19.90 | – | – | – | – | – |
| COc1ccc2c3c1O[C@H]1C[C@@H](O)C=C[C@@]31CCN(C)C2 [Galantamine] | 1.25 | – | -96.90% | – | 40.50 | – | – | – | – | – |
| COc1ccc(CCN(C)CCCC(C#N)(c2cc(OC)c(OC)c(OC)c2)C(C)C)cc1OC (stereo not shown) [Gallopamil] | – | – | – | – | – | – | 0.2 | -97.19% | 7.16 | – |
| CN1[C@@H]2CC(OC(=O)[C@H](CO)c3ccccc3)C[C@H]1[C@@H]1O[C@@H]12.Cl (stereo partly shown) [Hyoscine hydrochloride] | – | – | – | – | – | – | 0.57 | -94.9% | 11.2 | – |
| CN1[C@@H]2CC[C@H]1CC(OC(=O)[C@H](CO)c1ccccc1)C2.Cl (stereo partly shown) [Hyoscyamine Hydrochloride] | – | – | – | – | – | – | 0.69 | -94.01% | 11.54 | – |
| CN1[C@@H]2CC[C@H]1C[C@@H](OC(=O)[C@H](CO)c1ccccc1)C2 [Hyoscyamine] | – | – | – | – | – | – | 0.65 | -96.31% | 17.72 | – |
| CN(C)CCCN1c2ccccc2CCc2ccccc21 [Imipramine Hydrochloride] | 16.90 | 16.90 | -47.47% | -47.47% | 32.17 | 32.17 | 16.9 | -47.47% | 32.17 | – |
| CC(C)CCCC(C)NC(C)C (stereo not shown) [Iproheptine] | 10.27 | – | -61.42% | – | 26.61 | – | – | – | – | – |
| CN1CCC(=C2c3ccccc3CC(=O)c3sccc32)CC1 [Ketotifen Fumarate] | 0.81 | 0.81 | -96.52% | -96.52% | 23.14 | 23.14 | – | – | – | – |
| CN1CCC(=C2c3ccccc3CC(=O)c3sccc32)CC1 [Ketotifen] | 1.38 | 1.38 | -93.13% | -93.13% | 20.12 | 20.12 | – | – | – | – |
| C[C@H]1COc2c(N3CCN(C)CC3)c(F)cc3c(=O)c(C(=O)O)cn1c23 [Levofloxacin] | 0.74 | -0.74 | -101.85% | -101.85% | 39.73 | 39.73 | – | – | – | – |
| Cc1ccc(NC(=O)c2ccc(CN3CCN(C)CC3)cc2)cc1Nc1nc(-c2cccnc2)cs1 [Masitinib] | 3.82 | 3.82 | -86.20% | -86.20% | 27.71 | 27.71 | 3.82 | -86.2% | 27.71 | – |
| CN1CCc2c(c3ccccc3n2Cc2ccccc2)C1.CN1CCc2c(c3ccccc3n2Cc2ccccc2)C1.O=S(=O)(O)c1cccc2c(S(=O)(=O)O)cccc12 [Mebhydrolin Naphthalenesulfonate] | 1.93 | 1.93 | -92.39% | -92.39% | 25.34 | 25.34 | – | – | – | – |
| CC12CC3CC(C)(C1)CC(N)(C3)C2 [Memantine Hydrochloride] | – | – | -99.82% | – | 26.34 | – | – | – | – | – |
| CC(=O)OC(C)C[N+](C)(C)C (stereo not shown) [Methacholine Chloride] | 37.31 | – | 43.29% | – | 26.04 | – | – | – | – | – |
| CCn1cc(C(=O)O)c(=O)c2cc(F)c(N3CCNCC3)cc21 [Norfloxacin] | – | 0.05 | -99.81% | -99.81% | 28.07 | 28.07 | 0.05 | -99.81% | 28.07 | – |
| CNCCC=C1c2ccccc2CCc2ccccc21 [Nortriptyline Hydrochloride] | – | – | – | – | – | – | 2.78 | -82.96% | 16.29 | – |
| NCCC(O)(P(=O)([O-])O)P(=O)([O-])O.[Na+].[Na+] [Pamidronate disodium] | 18.72 | – | -37.79% | – | 30.08 | – | – | – | – | – |

The next lines start with results.

| B-scores (MUT) ([1]; Supplementary Table 1) | B-scores (MUT) ([1]; Table 1) | Change of B-scores (%) [1, 3] | Change of B-scores (%) [1, 4] | B-scores (WT) ([2]; Supplementary Table 1) | B-scores (WT) ([2]; Table 1) | B-scores (MUT) ([1]; Supplementary Table 2) | Change of B-scores (%) [1, 5] | B-scores (WT) ([2]; Supplementary Table 2) | Compound | other results |
| --- | --- | --- | --- | --- | --- | --- | --- | --- | --- | --- |
| – | – | – | – | – | – | 39.57 | 241.86% | 11.57 | CC(=O)[C@]1(O)Cc2c(O)c3c(c(O)c2[C@@H](O[C@H]2C[C@H](N)[C@H](O)[C@H](C)O2)C1)C(=O)c1ccccc1C3=O [Idarubicin hydrochloride] | – |
| 0.60 | – | -97.97% | – | 29.54 | – | – | – | – | CCC(NC(C)C)C(O)c1ccc(O)c(O)c1 (stereo not shown) [Isoetharine Mesylate] | – |
| – | – | -100.26% | – | 20.95 | – | -0.05 | -100.26% | 20.95 | CC(C)NCC(O)c1ccc(O)c(O)c1 (stereo not shown) [Isoproterenol Hydrochloride] | Change of B-scores (%) ([1]; MRGPRX2-MUT in comparison to MRGPRX2-WT cells, Supplementary Table 1, listed as Isoprenaline hydrochloride): -100.25%; B-scores (WT) ([2]; Supplementary Table 1, listed as Isoprenaline hydrochloride): 21.82 |
| 6.75 | – | -64.69% | – | 19.12 | – | – | – | – | CC(C)NCC(O)c1ccc(O)c(O)c1 (stereo not shown) [Isoproterenol] | B-scores (MUT) [1, 6]: 6.75; Change of B-scores (%) ([1]; MRGPRX2-MUT versus MRGPRX2-WT cells, Supplementary Table 2, listed as Isoprenaline): -64.69%; B-scores (WT) [2, 6]: 19.12 |
| – | – | – | – | – | – | 1.63 | -86.62% | 12.18 | CC(C)(C)NC[C@H](O)c1ccc(O)c(CO)c1 [Levalbuterol] | – |
| – | -3.30 | -115.04% | -115.04% | 21.95 | 21.95 | – | – | – | CCOC(=O)N1CCC(=C2c3ccc(Cl)cc3CCc3cccnc32)CC1 [Loratadine] | – |
| 2.41 | – | -88.28% | – | 20.54 | – | 2.41 | -88.28% | 20.54 | CC(C)NCC(O)c1cc(O)cc(O)c1 (stereo not shown) [Metaproterenol] | – |
| 1.32 | – | -94.42% | – | 23.69 | – | – | – | – | CC(=O)Oc1cc(C(C)C)c(OCCN(C)C)cc1C [Moxisylyte Hydrochloride] | – |
| 7.54 | – | -73.85% | – | 28.83 | – | – | – | – | NC[C@H](O)c1ccc(O)c(O)c1 [Norepinephrine] | – |
